Values after ≈ are worked out from the molar mass of the structure shown. Active and inactive are the calls of the source. The rule behind the calls is not given here.
Experiments:
Mus musculus [1] = assay: (§1) Protection against imiquimod-induced C57BL/6 mouse model of psoriasis assessed as suppression of spongiosis at 15 mg/kg, po administered via gavage treated 1 day prior to imiquimod application and subsequent daily dosing for 7 consecutive days and measured post-last dose by H and E staining based histopathological analysis; type: functional
Mus musculus [2] = assay: as §1, with “reduction in ISG15 mRNA expression” for “suppression of spongiosis”, “SYBR green dye” for “H and E staining”, “qPCR” for “histopathological”; type: functional, organism-based
in vitro = settings: mouse, plasma
Description: Stability of the compound in mouse plasma assessed as parent compound remaining at 25 uM measured after 2 hrs by LC-MS/MS analysis

[3] = AUC (0 to 24 hrs) in C57BL/6 mouse at 15 mg/kg, iv by LC-MS/MS analysis; type: ADME, organism-based; set-up: time < 24 hr, dose 15 mg/kg, route intravenous; settings: in vivo
[4] = Toxicity in C57BL/6 mouse assessed as mesangial proliferation at 15 mg/kg, po administered once daily via gavage for 7 consecutive days and measured post-last dose by H and E staining based histomorphological analysis; type: organism-based; settings: in vivo
[5] = Tmax in C57BL/6 mouse at 15 mg/kg, po administered via gavage by LC-MS/MS analysis; type: ADME, organism-based; settings: in vivo
Mus musculus [6] = assay: as §1, with “reduction in TNFalpha mRNA expression” for “suppression of spongiosis”, “SYBR green dye” for “H and E staining”, “qPCR” for “histopathological”; type: functional, organism-based
[7] = Toxicity in C57BL/6 mouse assessed as glomerular hypertrophy at 15 mg/kg, po administered once daily via gavage for 7 consecutive days and measured post-last dose by H and E staining based histomorphological analysis; type: organism-based; settings: in vivo
[8] = Apparent permeability across apical to basal side in human Caco2 cells at 10 uM measured after 120 mins by LC-MS/MS analysis; settings: Caco-2
physchem = settings: phosphate buffer, pH 7.4
Description: Aqueous solubility of the compound in pH 7.4 0.25 M phosphate buffer at 500 uM incubated for 18 hrs under stirred condition by UV-HPLC analysis

[9] = Apparent permeability across basal to apical side in human Caco2 cells at 10 uM measured after 120 mins by LC-MS/MS analysis; settings: Caco-2
[10] = Toxicity in C57BL/6 mouse assessed as inflammation of kidney at 15 mg/kg, po administered once daily via gavage for 7 consecutive days and measured post-last dose by H and E staining based histomorphological analysis; type: organism-based; settings: in vivo
[11] = Toxicity in C57BL/6 mouse assessed as change in lung microanatomy at 15 mg/kg, po administered once daily via gavage for 7 consecutive days and measured post-last dose by H and E staining based histomorphological analysis; type: organism-based; settings: in vivo

CCN1CCN(CCCn2cnc3c(N4CCN(CC)CC4)ncnc32)CC1
Activity (Mus musculus [1]): 100%
Activity (Mus musculus [2]): Active
remaining at 2 h, 25 µM (in vitro): 99.2%
AUC(0-t) at 24 h [3]: 50.9 µg·h/mL
Activity [4]: Non-Toxic
Tmax [5]: 2 h
Activity (Mus musculus [6]): Active
Activity [7]: Non-Toxic
Papp A→B at 2 h, 10 µM [8]: 35.7 nm/s
solubility at 18 h, 500 µM (physchem): 0.2 mg/mL (≈ 518 µM)
Papp B→A at 2 h, 10 µM [9]: 92.8 nm/s
Activity [10]: Non-Toxic
Activity [11]: Non-Toxic

Reference: ChEMBL document CHEMBL4402605, “A Chemical Switch for Transforming a Purine Agonist for Toll-like Receptor 7 to a Clinically Relevant Antagonist” (J Med Chem, 2020)
